Laboratory results from patent US11260050B2, “Combination of cotinine plus antioxidant for treatment-resistant depression and correction of astrocytes functional deficit induced by depression and other neuropathological” (UNIVERSIDAD SAN SEBASTIAN, priority 2017, dated 2022).

What was measured:
[1] = tested on: mice subjected to restraint stress; test: Porsolt test, oral co-treatment during restraint stress (Example 1, Experiment 2); format: in vivo, C57BL/6 mice; conditions: RS mice, cotinine 5 mg/kg, KO, or mix, vs stressed vehicle
Experimental: Mice (n=5-8/condition) were treated via oral during and after restraint stress continuously until euthanasia.
Mice received daily treatments with
2. Cotinine dissolved in PBS via oral (gavage, (5 mg/kg; Cot 0.5)
3. Krill oil (KO) via oral (5 mg/ml in PBS, 50 μl) continuously from the beginning of the restraint stress until euthanasia.
To induce chronic stress, the restraint stress paradigm was used as previously described. Mice are immobilized in 50 ml falcon plastic tubes that were attached to mouse cages. The immobilization proceeded during 6 h from 9:00 AM to 3:00 PM in absence of treatments. Tubes have holes in the opposite side of the tube to allow the animal breathing and urination. Mice were almost completely immobilized for 6 h/day for 21 days after which they were permitted freely to move, eat and drink.
This test is used to measure the antidepressant effects of drugs, and consists in placing each mouse in a transparent cylinder filled with water at room temperature (RT). After a brief period of strong activity, rodents adopt a characteristic immobile posture. The time mice spent immobile is a measure of depressive-like behavior. The immobility time will be recorded during a 15-min and a next day 5-min trial. The time spent by each mouse immobile will be recorded.

GFAP = GFAP immunoreactivity and GFAP+ cell density, hippocampus and frontal cortex (Example 2); format: in vivo, C57BL/6 male mice
Experimental: Mice between 2-3 months of age after one week of acclimatization were randomly divided into two groups. Stressed mice were subjected to restraint stress. Control (non-restrained) mice were allowed to move freely during this period. After the stress exposure period, mice were divided into three experimental groups: 1) Non-restrained mice treated with vehicle (PBS, pH 7.4) serving as unstressed controls (n=8); 2) Restrained mice (RS) treated with vehicle (n=8); 3), RS mice treated with 24 μl of a cotinine solution (10 mg/ml in PBS, pH 7.4) via intranasal route of administration (n=6). Treatments were administered daily until euthanasia. After two weeks of treatments mice were behaviorally tested and euthanized (FIG. 10)
For all protein analyses, mice were euthanized and brains removed. Each brain was divided into two hemispheres. The left hemisphere of brains was dissected out to collect the regions of interest and quickly frozen for later analyses. For the immunohistochemical (IHC) analysis the right hemisphere of each mouse brain was placed in 10% formalin in PBS pH 7.4 for 48 h and then embedded in paraffin. Each region of interest was located using Paxinos Atlas as a reference (Paxinos and Franklin, 2004), and serial […] of 4 μm (n≥5/mouse) were collected using the Microtome Leica RM 2125RT and mounted on silanized glass slides.
The analysis of GFAP^+ cells was performed using tissue slices containing the ventral hippocampus (Approx. Bregma −4.08 mm, interaural 4.92 mm) and frontal cortex (Approx. Bregma 3.2 mm, interaural 1.54 mm). Sagittal sections of brains were collected in PBS and processed for GFAP immunoreactivity (IR). Brain slices were immersed in xylene and a decreasing graduation of ethanol baths for hydration. Then, slides were subjected to a standard process of antigenic recovery in buffer citrate pH=6 in a pressurized saucepan (Biocare Medical, Walnut Creek, Calif.) for 30 min. Next, slides were incubated with a solution of 3% hydrogen peroxide to block endogenous peroxidase for 5 min, washed with PBS, and blocked with a horse serum solution (Vectastain Elite ABC, Vector Laboratories, Burlingame, Calif., USA) for 10 min at room temperature (RT). Sections were washed in PBS and incubated for 1 hour (Franklin, 2001) at RT with an antibody against GFAP 1:100 (Sigma). After washing with PBS, sections were incubated with a biotinylated secondary antibody for 10 min. Then, sections were washed with PBS and incubated with the amplifier solution from the Vectastain Elite kit for 10 min at RT. The reaction was visualized using ImmunoDetector DAB (SB Bio Inc., Santa Barbara, Calif., USA). For counterstaining, sections were stained with hematoxylin for 30 seconds (sec), dehydrated in baths of ascending percentages of alcohol solutions and xylene, and mounted with synthetic resin.
For the IR analysis, for each mouse, three digital images were randomly selected at 40× magnifications in the areas of interest (hippocampus and frontal cortex) (n=5-6/condition). […] The determination of the area of the immunolabeling was calculated delimiting the IR areas using the ImageJ software (National Institute of Health, Bethesda, […]., USA). For all analyses, GFAP^+ astrocytes were selected randomly from the frontal cortex and the CA1, CA3 and dentate gyrus regions of the hippocampus and quantified. […]

[2] = cotinine IN administered after RS

In the case of `CN1C(=O)CC[C@H]1c1cccnc1` [Cotinine, (5S)-1-methyl-5-(3-pyridyl) pyrrolidin-2-one], the “depressive-like behavior (freezing behavior) in the Porsolt test” value [1] is reported as “non-significant decrease in depressive-like behavior”, the “number of hippocampal GFAP+ cells counted” value (GFAP; Ctrl 144, RS 97) is reported as 140 and the “GFAP IR in the frontal cortex” value (GFAP; [2]) is reported as 90 % of control values. The “GFAP IR in the hippocampus” value (GFAP; [2]) was 84 % of control value, the “GFAP+ cell density in hippocampal regions” value (GFAP; restrained mice, CA1 p<0.01, CA2 p<0.05, DG p<0.01) was “significantly higher in the cotinine-treated restrained mice relative to vehicle-treated restrained mice” and the “GFAP+ cell density in control (non-stressed) mice” value (GFAP; vehicle-treated vs cotinine-treated control mice) was “No significant differences”.
